These results are taken from article PMC11959975 (Acta Pharmaceutica Sinica. B, 2025).

For one assay, the system named is mice. Description: Bleeding time of tail clipping in mice. The assay is classed as in vivo. To be noted: 5 mg/kg.
For assay [1], the system named is arteriovenous shunt thrombosis model in rats. Description: Arteriovenous shunt thrombosis model in rats. Format: in vivo. The following applies: 10 mg/kg, i.v.
Assay [2] deals with MCAO model of SD rats. Briefly: Rat model of acute ischemic stroke. The assay is classed as in vivo. The following applies: acute IS rats, 10 mg/kg.
In assay [3] the test system is MCAO model of SD rats. Briefly: Rat model of chronic ischemic stroke. The assay is classed as in vivo. To be noted: chronic IS rats.
For assay [4], the system named is permanent cerebral ischemic stroke in rats. Description: Rat model of permanent ischemic stroke. Format: in vivo, SD rats. The following applies: permanent IS rats.

`CC(=O)Oc1ccccc1C(=O)O` [ASP, O-acetoxybenzoic acid] yielded a Bleeding time with mice of 22.52 ± 1.31 min. In addition, in assay [1], the “inhibition (%) of dry thrombus” value worked out at 39.67% and the “inhibition (%) of wet thrombus” value was found to be 40.74%.

On to `CCCC[C@@H]1OC(=O)c2ccccc21` [S-NBP], for which, in assay [1], the “inhibition (%) of dry thrombus” value is given as 25.95% and the “inhibition (%) of wet thrombus” value worked out at 33.24%.

In the case of `CCCCC1OC(=O)c2ccccc21` (stereo not drawn) [NBP, R,S-3-n-butylphthalide], the “reduction of cerebral infarction volume vs model group” value is 35% with MCAO model of SD rats [2] and 7% in assay [4] (10 mg/kg). In addition, the “reduction of cerebral infarction volume” value in the assay with MCAO model of SD rats [3] (5.0 mg/kg) was determined as 32%. Moreover, the “misstep frequency (grid test)” value in the assay on MCAO model of SD rats [3] (day 14 after modeling) was “significantly higher than that in the sham group”. Besides, the NSS value result in assay [4] (day 1 after surgery) was “lower than that of the model group but without significant difference”.

Take `CCCCC(O)c1ccccc1C(=O)[O-].[K+]` (stereo not drawn) [PHPB, potassium 2-(1-hydroxypentyl)-benzoate]: in assay [1], the “inhibition (%) of dry thrombus” value amounted to 11.32% and the “inhibition (%) of wet thrombus” value came out at 15.39%.
